What all share (details): stereoisomer not certain
A short description of data set [1]: RP, Thermo Scientific Acclaim RSLC 120 C18, 100 × 2.1 mm, 2.2 µm, 30 °C, 0.2 mL/min, estimated dead time 1.1 min; A: water + 0.1% formic acid, pH 2.6; B: methanol + 0.1% formic acid, pH 2.6; gradient (min/%B) 0/10 4/50 17/95 25/95 25.1/10 30/10.
The nature of data set [2]: RP, Waters ACQUITY UPLC BEH C18, 100 × 2.1 mm, 1.7 µm, 30 °C, 0.35 mL/min, estimated dead time 0.63 min; A: water + 0.01% formic acid + 5 mM ammonium formate, pH 3.71; B: acetonitrile + 0.01% formic acid, pH 3.71; gradient (min/%B) 0/10 3/10 22/100 30/100 30.1/10 40/10.
The nature of data set [3]: RP, Waters ACQUITY UPLC BEH C18, 100 × 2.1 mm, 1.7 µm, 35 °C, 0.35 mL/min, estimated dead time 0.63 min; A: water + 0.01% formic acid + 5 mM ammonium formate, pH 3.71; B: acetonitrile + 0.01% formic acid, pH 3.71; gradient (min/%B) 0/5 0.5/5 16/95 16.1/99 19/99 19.1/5 21/5.
Data set [4] can be described thus: RP, Thermo Scientific Acclaim RSLC 120 C18, 100 × 2.1 mm, 2.2 µm, 30 °C, 0.2 mL/min, estimated dead time 1.1 min; A: 90% water + 10% methanol + 0.01% formic acid + 5 mM ammonium formate, pH 3.61; B: methanol + 0.01% formic acid + 5 mM ammonium formate, pH 3.61; gradient (min/%B) 0/1 1/1 2/39 13/99.9 15/99.9 15.1/1 20.1/1.

The values that follow come from the RepoRT retention time repository (doi:10.1021/acs.analchem.2c02893).

With `COc1ccc(C(=O)c2ccccc2)c(O)c1` [Benzophenon 3 (=2-Hydroxy-4-methoxybenzophenon)], the LC retention time was 13.8 min in data set [1], 14.5 min in data set [2], 11 min in data set [3] and 10.8 min in data set [4].

On to `COC(=O)c1ccccc1C(=O)OC` [Phthalate-Dimethyl], for which the LC retention time in data set [1] was 7.52 min; in data set [2], 9.38 min; in data set [3] it was 7.03 min; in data set [4] it was 6.63 min.

Take `CCNc1nc(N)nc(Cl)n1` [Atrazine-desisopropyl]: the LC retention time is 5.22 min in data set [1], 3.51 min in data set [2], 3.58 min in data set [3] and 4.75 min in data set [4].

As to `CCC(C)C1OC2(CCC1C)CC1CC(CC=C(C)C(OC3CC(OC)C(OC4CC(OC)C(O)C(C)O4)C(C)O3)C(C)C=CC=C3COC4C(O)C(C)=CC(C(=O)O1)C34O)O2` (stereo not drawn) [Ivermectin], the LC retention time was 20.4 min in data set [1], 21.1 min in data set [2] and 17 min in data set [3].

For the compound `CN(C)CC1CCCCC1(O)c1cccc(O)c1` (stereo not drawn) [Tramadol-O-Desmethyl], the LC retention time is 3.86 min in data set [1], 3.56 min in data set [2], 3.48 min in data set [3] and 4.06 min in data set [4].

Take `CCC1OC(=O)CC(O)C(C)C(OC2OC(C)C(OC3CC(C)(O)C(O)C(C)O3)C(N(C)C)C2O)C(CC=O)CC(C)C(=O)C=CC(C)=CC1COC1OC(C)C(O)C(OC)C1OC` (stereo not drawn) [Tylosin]: the LC retention time in data set [1] is 7.75 min; in data set [2], 10.1 min; in data set [3] it was 7.42 min; in data set [4], 7.88 min.

In the case of `CC12CC3CC(C)(C1)CC(N)(C3)C2` [Memantine], the LC retention time is 6.63 min in data set [1], 8.04 min in data set [2], 5.86 min in data set [3] and 6.91 min in data set [4].

Turning to `C[N+](C)(C)CCCl` [Chlormequate], the LC retention time in data set [2] and in data set [3] was 0.84 min each time.

Turning to `CC12CCC(=O)C=C1CCC1C2CCC2(C)C(O)CCC12` (stereo not drawn) [Testosterone], the values for the LC retention time in data set [1], in data set [2] and in data set [3] were 12.2 min, 11.6 min and 8.76 min, respectively.

Turning to `NCC(O)c1ccccc1` (stereo not drawn) [Apophedrin (Phenylethanolamine)], the LC retention time in data set [1] was 2.34 min; in data set [2] it was 1.38 min; in data set [3] it was 1.65 min.

For `CCNC(C)Cc1cccc(C(F)(F)F)c1` (stereo not drawn) [Fenfluramine], the LC retention time in data set [1] is 5.84 min; in data set [2], 8.46 min; in data set [3], 6.21 min.

With `C#CCN(C)C(C)Cc1ccccc1` (stereo not drawn) [Deprenyl/Selegiline], the values for the LC retention time in data set [1], in data set [2] and in data set [3] were 4.32 min, 5.98 min and 4.53 min, respectively.

For the compound `CC(C)(C)NCC(O)c1ccc(O)c(CO)c1` (stereo not drawn) [Albuterol/Salbutamol], the LC retention time in data set [1] was 2.71 min; in data set [2] it was 1.28 min; in data set [3] it was 1.92 min.

For the compound `Nc1ncn[nH]1` [Amitrole], the LC retention time in data set [2] was 0.91 min; in data set [3], 0.88 min; in data set [4], 1.44 min.

As for `NCCc1cnc[nH]1` [Histamine], the LC retention time in data set [2] was 0.99 min; in data set [3] it was 0.94 min; in data set [4], 1.58 min.

With `COP(=O)(OC)C(O)C(Cl)(Cl)Cl` (stereo not drawn) [Trichlorfon], the LC retention time in data set [1] is 5.86 min; in data set [2], 5.41 min; in data set [3], 4.26 min.

For the compound `CCC(C)C1OC2(C=CC1C)CC1CC(CC=C(C)C(OC3CC(OC)C(OC4CC(OC)C(O)C(C)O4)C(C)O3)C(C)C=CC=C3COC4C(O)C(C)=CC(C(=O)O1)C34O)O2` (stereo not drawn) [Avermectin], the LC retention time was 18.7 min in data set [1], 18.8 min in data set [2] and 14.6 min in data set [3].

`c1cc2c(cc1CN1CCNCC1)OCO2` [Piperazine-1-Piperonyl]: the LC retention time was 2.56 min in data set [1], 2.63 min in data set [2] and 3.2 min in data set [3].

Take `NC(=O)N=C(N)N` [Guanylurea]: the LC retention time in data set [2] is 0.83 min; in data set [3] it was 0.86 min.

As to `CCC(C)C1OC2(C=CC1C)CC1CC(CC=C(C)C(OC3CC(OC)C(OC4CC(OC)C(NC)C(C)O4)C(C)O3)C(C)C=CC=C3COC4C(O)C(C)=CC(C(=O)O1)C34O)O2` (stereo not drawn) [Emamectin], the results for the LC retention time in data set [1], in data set [2] and in data set [3] were 14.3 min, 16.3 min and 12.6 min, respectively.

For `O=c1[nH]c2ccccc2s1` [Benzothiazole-2-OH], the LC retention time in data set [1] is 7.4 min; in data set [2], 7.78 min; in data set [3], 5.76 min.

For the compound `CCS(=O)(=O)CCSP(=O)(OC)OC` [Demeton-S-methylsulfone], the LC retention time in data set [4] is 4.15 min.

Regarding `CC(=O)N(CC(O)CO)c1c(I)c(C(=O)NCC(O)CO)c(I)c(C(=O)NCC(O)CO)c1I` (stereo not drawn) [Iohexol], the LC retention time in data set [4] is 2.98 min.

As for `O=S(=O)(Oc1ccc(Cl)cc1)c1ccccc1` [Fenson], in data set [4], the LC retention time was 10.1 min.

As for `O=C(O)c1cccnc1Nc1cccc(C(F)(F)F)c1` [Niflumic acid], the LC retention time in data set [4] was 9.86 min.

With `CNC(=O)Oc1cc(C)c(N(C)C)c(C)c1` [Mexacarbate], in data set [4], the LC retention time is 9.3 min.

With `CC(=O)Nc1ccc(N)cc1` [4`-Aminoacetanilide], in data set [4], the LC retention time was 2.27 min.

In the case of `Cn1c(-c2ccccc2)cc(-c2ccccc2)[n+]1C` [Difenzoquat (Ion 1+)], the LC retention time in data set [4] was 5.21 min.

As to `CCC(=O)OC(Cc1ccccc1)(c1ccccc1)C(C)CN(C)C` (stereo not drawn) [Dextropropoxyphene], the LC retention time in data set [4] was 7.73 min.

As to `Clc1ccc(COC(Cn2ccnc2)c2ccc(Cl)cc2Cl)c(Cl)c1` (stereo not drawn) [Miconazole], the LC retention time in data set [4] was 13 min.

Consider `COC1CC(OC2C(C)OC(OC3C(C)=CCC4CC(CC5(CCC(C)C(C(C)C)O5)O4)OC(=O)C4C=C(C)C(O)C5OCC(=CC=CC3C)C45O)CC2OC)OC(C)C1O` (stereo not drawn) [Ivermectin B1b], for which the LC retention time in data set [4] is 14.2 min.

`CCOC(=O)CC(SP(=S)(OC)OC)C(=O)OCC` (stereo not drawn) [Malathion]: the LC retention time in data set [4] is 9.59 min.

As for `CC(=O)CCCCn1c(=O)c2c(ncn2C)n(C)c1=O` [Pentoxifylline], the LC retention time in data set [4] was 5.23 min.

In the case of `OCc1ncc2n1-c1ccc(Cl)cc1C(c1ccccc1F)=NC2` [Midazolam -1-Hydroxy], in data set [4], the LC retention time was 8.44 min.

For the compound `Cc1cc(O)cc(C)c1S(C)=O` (stereo not drawn) [Methiocarb-sulfoxide phenol], the LC retention time in data set [4] was 4.63 min.

Consider `OCCN(CCO)c1nc(N2CCCCC2)c2nc(N(CCO)CCO)nc(N3CCCCC3)c2n1` [Dipyridamole], for which the LC retention time in data set [4] was 9.36 min.

In the case of `CCC(CC)(CNC(=O)CCCO)c1cccc(OC)c1` [Embutramide], in data set [4], the LC retention time is 8.98 min.

With `Cc1cc(=O)n(-c2ccccc2)n1C` [Phenazone], the LC retention time in data set [4] was 4.63 min.

`c1ccc2c(c1)Cc1cccnc1N1CCNCC21` (stereo not drawn) [Mirtazapine-Desmethyl (normirtazapine)]: the LC retention time in data set [4] was 5.31 min.

Consider `COc1cccc(C(=O)NN(C(=O)c2cc(C)cc(C)c2)C(C)(C)C)c1C` [Methoxyfenozide], for which, in data set [4], the LC retention time was 9.56 min.

Turning to `Cc1ccc2c(-c3ccccc3)nc(=O)n(C(C)C)c2c1` [Proquazone], the LC retention time in data set [4] was 9.61 min.

For the compound `CN(C)CCCN1c2ccccc2Sc2ccc(Cl)cc21` [Chlorpromazine], the LC retention time in data set [4] was 8.89 min.

Turning to `CN(C)C(=O)Nc1ccc(Cl)c(Cl)c1` [Diuron], the LC retention time in data set [4] is 8.64 min.

Turning to `CC(C)OC(=O)C(C)N(C(=O)c1ccccc1)c1ccc(F)c(Cl)c1` (stereo not drawn) [Flamprop-isopropyl], in data set [4], the LC retention time is 10.8 min.

For the compound `CC(C(=O)c1ccc2c(c1)OCO2)N(C)C` (stereo not drawn) [MDDMA-bk], the LC retention time in data set [4] is 3.78 min.

`CC(C)N(C(=O)SCC(Cl)=C(Cl)Cl)C(C)C` [Triallate]: the LC retention time in data set [4] was 12.7 min.

As for `C=C(C)C1CCC(C)=CC1c1c(O)cc(CCCCC)cc1O` (stereo not drawn) [Cannabidiol], in data set [4], the LC retention time is 12.7 min.

For `CC(=O)Nc1c(C)n(C)n(-c2ccccc2)c1=O` [Antipyrine- 4-Acetamido], the LC retention time in data set [4] is 3.94 min.

With `CCOC1Oc2ccc(OS(C)(=O)=O)cc2C1(C)C` (stereo not drawn) [Ethofumesate], the LC retention time in data set [4] was 9.14 min.

As for `CCOC(=O)C(c1ccccc1)N1CCCCC1` (stereo not drawn) [Ethylphenidate], the LC retention time in data set [4] is 5.08 min.

On to `CCOP(=S)(OCC)Oc1ccc(=O)n(-c2ccccc2)n1` [Pyridaphenthion], for which the LC retention time in data set [4] is 9.79 min.

Turning to `CCCCOC(=O)C(C)Oc1ccc(Oc2ccc(C(F)(F)F)cn2)cc1` (stereo not drawn) [Fluazifop-p-butyl], the LC retention time in data set [4] was 12 min.
